PMC9861803, “A New ABCB1 Inhibitor Enhances the Anticancer Effect of Doxorubicin in Both In Vitro and In Vivo Models of NSCLC” (International Journal of Molecular Sciences, 2023)

What was measured:
[1] = biological target: T1, breast cancer resistant protein (BCRP, ABCG2) (Homo sapiens, UniProt Q9UNQ0); experiment: Hoechst […] accumulation assay in H460 cells; assay type: cell-based
T1 sequence (Q9UNQ0 1-655): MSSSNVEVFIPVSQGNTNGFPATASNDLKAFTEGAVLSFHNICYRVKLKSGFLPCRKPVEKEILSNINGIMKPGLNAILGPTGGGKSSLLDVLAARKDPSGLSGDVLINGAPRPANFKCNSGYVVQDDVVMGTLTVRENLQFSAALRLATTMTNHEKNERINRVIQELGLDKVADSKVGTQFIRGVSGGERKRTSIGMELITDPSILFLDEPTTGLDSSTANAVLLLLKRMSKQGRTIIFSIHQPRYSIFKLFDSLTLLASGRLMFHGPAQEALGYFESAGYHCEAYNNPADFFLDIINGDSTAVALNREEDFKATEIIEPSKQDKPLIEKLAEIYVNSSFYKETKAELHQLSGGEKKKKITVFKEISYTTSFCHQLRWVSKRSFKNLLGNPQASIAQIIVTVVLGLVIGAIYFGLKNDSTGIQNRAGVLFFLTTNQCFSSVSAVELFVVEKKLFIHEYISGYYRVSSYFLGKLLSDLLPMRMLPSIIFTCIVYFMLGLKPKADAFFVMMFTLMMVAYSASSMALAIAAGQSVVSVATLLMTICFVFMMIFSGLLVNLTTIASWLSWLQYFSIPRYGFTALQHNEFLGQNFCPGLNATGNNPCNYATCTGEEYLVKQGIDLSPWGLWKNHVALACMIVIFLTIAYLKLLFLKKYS

ABCA1 = ABCA1 (Mus musculus, UniProt P41233); experiment: radiolabelled cholesterol efflux to apoA-I from murine peritoneal macrophages; assay type: cell-based
Chain of ABCA1 (P41233 whole entry): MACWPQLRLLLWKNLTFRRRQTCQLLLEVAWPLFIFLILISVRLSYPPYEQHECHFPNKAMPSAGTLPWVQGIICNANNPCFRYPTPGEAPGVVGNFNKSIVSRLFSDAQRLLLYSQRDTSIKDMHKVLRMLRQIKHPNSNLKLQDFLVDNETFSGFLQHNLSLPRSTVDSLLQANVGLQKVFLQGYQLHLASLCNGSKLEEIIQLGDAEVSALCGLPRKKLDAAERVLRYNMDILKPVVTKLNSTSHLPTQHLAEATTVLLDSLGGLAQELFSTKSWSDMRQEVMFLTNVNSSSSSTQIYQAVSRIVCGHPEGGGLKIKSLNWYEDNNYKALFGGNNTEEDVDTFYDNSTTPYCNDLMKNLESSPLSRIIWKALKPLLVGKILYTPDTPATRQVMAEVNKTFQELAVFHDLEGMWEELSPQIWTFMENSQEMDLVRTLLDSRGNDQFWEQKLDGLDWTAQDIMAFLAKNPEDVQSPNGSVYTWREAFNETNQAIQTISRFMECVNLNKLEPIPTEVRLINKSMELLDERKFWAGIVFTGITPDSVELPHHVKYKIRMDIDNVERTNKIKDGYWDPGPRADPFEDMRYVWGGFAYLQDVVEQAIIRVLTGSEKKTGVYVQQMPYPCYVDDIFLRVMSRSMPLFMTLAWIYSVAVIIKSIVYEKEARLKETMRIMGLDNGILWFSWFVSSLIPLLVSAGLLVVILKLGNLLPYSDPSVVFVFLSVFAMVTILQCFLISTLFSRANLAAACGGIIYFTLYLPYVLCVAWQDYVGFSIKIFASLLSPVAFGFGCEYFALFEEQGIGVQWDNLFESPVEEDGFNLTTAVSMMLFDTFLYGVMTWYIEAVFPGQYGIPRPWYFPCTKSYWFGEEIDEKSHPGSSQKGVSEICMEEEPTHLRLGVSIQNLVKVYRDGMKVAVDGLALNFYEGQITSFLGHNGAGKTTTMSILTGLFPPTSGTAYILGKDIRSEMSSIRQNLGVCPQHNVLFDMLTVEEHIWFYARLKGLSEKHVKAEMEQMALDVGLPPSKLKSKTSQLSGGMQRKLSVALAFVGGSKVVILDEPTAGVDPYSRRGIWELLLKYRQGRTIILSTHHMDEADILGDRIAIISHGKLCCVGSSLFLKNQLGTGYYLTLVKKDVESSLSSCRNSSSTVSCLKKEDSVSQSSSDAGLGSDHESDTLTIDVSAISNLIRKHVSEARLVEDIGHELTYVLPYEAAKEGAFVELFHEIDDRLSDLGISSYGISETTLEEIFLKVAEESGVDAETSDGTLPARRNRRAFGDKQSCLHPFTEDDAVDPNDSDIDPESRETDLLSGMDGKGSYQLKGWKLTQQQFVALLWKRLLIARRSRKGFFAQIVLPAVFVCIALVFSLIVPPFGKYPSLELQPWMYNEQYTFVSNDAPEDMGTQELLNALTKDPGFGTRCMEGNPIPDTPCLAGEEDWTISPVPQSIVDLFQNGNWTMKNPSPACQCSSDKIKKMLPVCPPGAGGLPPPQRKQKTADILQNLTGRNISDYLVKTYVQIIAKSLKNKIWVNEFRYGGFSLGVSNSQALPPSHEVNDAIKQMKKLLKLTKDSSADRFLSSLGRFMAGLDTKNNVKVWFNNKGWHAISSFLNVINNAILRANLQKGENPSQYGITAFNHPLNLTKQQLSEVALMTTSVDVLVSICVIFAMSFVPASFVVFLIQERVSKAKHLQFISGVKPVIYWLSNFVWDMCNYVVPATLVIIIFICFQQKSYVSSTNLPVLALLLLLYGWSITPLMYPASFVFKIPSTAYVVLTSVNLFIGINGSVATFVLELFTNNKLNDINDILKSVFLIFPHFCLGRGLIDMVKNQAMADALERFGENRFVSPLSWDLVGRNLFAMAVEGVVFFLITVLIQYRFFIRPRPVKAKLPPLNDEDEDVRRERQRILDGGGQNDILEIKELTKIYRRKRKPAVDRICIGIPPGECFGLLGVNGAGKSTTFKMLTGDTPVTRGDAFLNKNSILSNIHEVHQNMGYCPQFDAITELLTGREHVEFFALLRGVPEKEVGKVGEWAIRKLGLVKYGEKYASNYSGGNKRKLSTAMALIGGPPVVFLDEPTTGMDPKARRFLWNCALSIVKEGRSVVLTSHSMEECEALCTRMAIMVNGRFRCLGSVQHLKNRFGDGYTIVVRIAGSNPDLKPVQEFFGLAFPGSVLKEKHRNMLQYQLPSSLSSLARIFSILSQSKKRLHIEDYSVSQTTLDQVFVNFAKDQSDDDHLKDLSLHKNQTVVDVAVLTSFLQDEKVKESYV

SMILES | Hoechst 33342 accumulation assay in H460 cells [1] | radiolabelled cholesterol efflux to apoA-I from murine peritoneal macrophages (ABCA1)
COc1ccc2c3c([nH]c2c1)[C@H](C=C(C)C)N1C(=O)[C@@H]2CCCN2C(=O)[C@@H]1C3 [fumetrimorgin C] | the reference compound fumetrimorgin C, as expected, significantly inhibited the amount of Hoechst 33342-caused intracellular fluorescence | –
CC(C)(Sc1cc(C(C)(C)C)c(O)c(C(C)(C)C)c1)Sc1cc(C(C)(C)C)c(O)c(C(C)(C)C)c1 [probucol] | – | probucol, the lead compound, significantly inhibited in a dose-dependent manner the ABCA1 activity
